Among the data in ChEMBL document CHEMBL5608252, “New Potent Sulfonamide-Based Inhibitors of S. aureus Biotin Protein Ligase” (ACS Med Chem Lett, 2024) are Ki and MIC values, retold here.

Values after ≈ are worked out from the molar mass of the structure shown.

A short description of assay [1]: Inhibition of Staphylococcus aureus BPL assessed as inhibition constant by biotinylation assay.
Assay [2] deals with Staphylococcus aureus. Description: Antibacterial activity against methicillin-resistant Staphylococcus aureus […] incubated for 16 to 20 hrs by CLSI based broth microdilution method. It is filed as functional. The conditions noted are these: time 16-20 hrs. (Broth dilution looks for growth in wells or tubes with falling amounts of substance.)
Assay [3] concerns Staphylococcus aureus. Description: Antibacterial activity against methicillin-susceptible Staphylococcus aureus ATCC 29213 incubated for 16 to 20 hrs by CLSI based broth microdilution method. The note with it: time 16-20 hrs. The assay is classed as functional.
Assay [4] has as its system Staphylococcus aureus. Description: Antibacterial activity against methicillin-resistant Staphylococcus aureus USA300 incubated for 16 to 20 hrs by CLSI based broth microdilution method. The note with it: time 16-20 hrs. It is filed as functional.
Assay [5] concerns Staphylococcus aureus. The assay can be described thus: Antibacterial activity against methicillin-susceptible Staphylococcus aureus ATCC 49775 incubated for 16 to 20 hrs by CLSI based broth microdilution method. It is filed as functional. The conditions noted are these: time 16-20 hrs.

By Ki is commonly meant the equilibrium dissociation constant of an inhibitor or competing ligand from its target. Turning to `Nc1ncnc2c1ncn2CCCCNS(=O)(=O)NC(=O)NCCCC[C@@H]1SC[C@@H]2NC(=O)N[C@@H]21`, the Ki in assay [1] worked out at 65 nM.

One may read the MIC as the least concentration at which growth counts as inhibited. Read a high MIC as weaker potency. Regarding `Nc1ncnc2c1ncn2CCCCS(=O)(=O)NC(=O)OCCCCC[C@@H]1SC[C@@H]2NC(=O)N[C@@H]21`, the Ki in assay [1] came out at 10.3 nM. Further, the MIC in assay [2], in assay [3], in assay [4] and in assay [5] was more than 256 µg/mL in each case.

On to `Nc1ncnc2c1ncn2CCCCOS(=O)(=O)NC(=O)NCCCC[C@@H]1SC[C@@H]2NC(=O)N[C@@H]21`, for which, in assay [1], the Ki was found to be 35.3 nM. In addition, the MIC in assay [2] was found to be 16 µg/mL (≈ 30.3 µM); in assay [3] it was 32 µg/mL (≈ 60.6 µM); in assay [4] it was 32 µg/mL (≈ 60.6 µM); in assay [5] it was 32 µg/mL (≈ 60.6 µM).

`Nc1ncnc2c1ncn2CCCCNS(=O)(=O)NC(=O)CCCC[C@@H]1SC[C@@H]2NC(=O)N[C@@H]21`: the Ki in assay [1] came to 7 nM.

Take `Nc1ncnc2c1ncn2CCCCCS(=O)(=O)NC(=O)NCCCC[C@@H]1SC[C@@H]2NC(=O)N[C@@H]21`: in assay [1], the inhibitory constant (Ki) was 57.2 nM. In addition, the MIC in assay [2], in assay [3], in assay [4] and in assay [5] was 16 µg/mL (≈ 30.4 µM) throughout.

As for `Nc1ncnc2c1ncn2CCCNS(=O)(=O)NC(=O)OCCCCC[C@@H]1SC[C@@H]2NC(=O)N[C@@H]21`, the Ki in assay [1] came to 20.1 nM. The MIC in assay [2] came out at 16 µg/mL (≈ 30.3 µM); in assay [3], 32 µg/mL (≈ 60.6 µM); in assay [4], 32 µg/mL (≈ 60.6 µM); in assay [5], 32 µg/mL (≈ 60.6 µM).
